Some test systems named below: K-562 leukemia; OVCAR-4 ovarian; SK-OV-3 ovarian; KM12 colon; SR leukemia; HL-60(TB) leukemia; U251 CNS; OVCAR-8 ovarian; SK-MEL-2 melanoma; MOLT-4 leukemia.
What all share (assay): growth of human tumour cells (NCI), 48 h

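Five compound concentrations were applied to cells in 96-well plates for 48 hours; endpoints were derived by simple linear interpolation of the resulting dose-response curve. The concentration for full growth arrest is given as TGI.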 Where only a bound is given, the exact number is not on record here.

Data on 15 molecules can be found in PubChem BioAssay (NCI).

With `Cn1cnc([N+](=O)[O-])c1Sc1nc(N)nc2c1ncn2Cc1ccccc1`, the TGI in the assay on K-562 leukemia is greater than 100 µM; in the assay with OVCAR-4 ovarian, greater than 100 µM; in the assay on SK-OV-3 ovarian it was 57 µM; with KM12 colon it was greater than 100 µM; with SR leukemia, greater than 100 µM; with HL-60(TB) leukemia, 47.7 µM. Besides, the TGI with U251 CNS was 60.1 µM; in the assay on OVCAR-8 ovarian, 72.2 µM; in the assay on SK-MEL-2 melanoma, 40.4 µM.

With `CCc1n[nH]c(=O)n1NC(=O)/C=C\C(=O)O`, the TGI in the assay with K-562 leukemia, with OVCAR-4 ovarian, in the assay with SK-OV-3 ovarian, with SR leukemia, in the assay with MOLT-4 leukemia and in the assay with HL-60(TB) leukemia was greater than 100 µM throughout. For the same molecule, the TGI with U251 CNS, in the assay on OVCAR-8 ovarian and in the assay on SK-MEL-2 melanoma was greater than 100 µM each time.

For `Cc1cc(C#N)c(Nc2c(C)cccc2[N+](=O)[O-])s1`, the TGI with K-562 leukemia, in the assay with OVCAR-4 ovarian, in the assay with SK-OV-3 ovarian, in the assay on KM12 colon, in the assay on SR leukemia and with MOLT-4 leukemia was greater than 100 µM each time. Further, the TGI in the assay with U251 CNS and with OVCAR-8 ovarian was greater than 100 µM each time.

Regarding `CC(C)(C)NC1C2CCC(C)(C1O)C2(C)C` (stereo not given), the TGI in the assay on K-562 leukemia, in the assay with OVCAR-4 ovarian, in the assay with SK-OV-3 ovarian, in the assay on KM12 colon, with SR leukemia and in the assay with MOLT-4 leukemia was greater than 100 µM each time. Further, the TGI in the assay with U251 CNS, in the assay with OVCAR-8 ovarian and with SK-MEL-2 melanoma was greater than 100 µM each time.

As to `C=C(C(=O)O)[C@@H]1C[C@@H]2O[C@H]1CC(C)=CCC/C(C)=C/CC[C@@]2(C)O`, the TGI in the assay on K-562 leukemia, with OVCAR-4 ovarian, in the assay on KM12 colon, in the assay on SR leukemia, in the assay on MOLT-4 leukemia and in the assay on HL-60(TB) leukemia was greater than 100 µM throughout. For the same molecule, the TGI in the assay on U251 CNS, in the assay with OVCAR-8 ovarian and in the assay with SK-MEL-2 melanoma was greater than 100 µM throughout.

In the case of `CCCCCCCCCCCCP(=O)(O)OCC(N)C(=O)O` (stereo not given), the TGI is greater than 100 µM with K-562 leukemia; greater than 100 µM in the assay with OVCAR-4 ovarian; 73.3 µM in the assay with SK-OV-3 ovarian; greater than 100 µM with SR leukemia; 61.7 µM in the assay on MOLT-4 leukemia; 36.1 µM in the assay on HL-60(TB) leukemia. The TGI in the assay with U251 CNS was 24.8 µM; in the assay with OVCAR-8 ovarian, greater than 100 µM; in the assay on SK-MEL-2 melanoma, 91.9 µM.

Take `CN(C)/C=N/S(=O)(=O)c1nn2c(C=O)c(-c3ccc(-c4ccc([N+](=O)[O-])cc4)o3)nc2s1`: the TGI is greater than 39.3 µM with OVCAR-4 ovarian; greater than 71.5 µM in the assay on SK-OV-3 ovarian; greater than 49.1 µM with KM12 colon; 5.4 µM in the assay with SR leukemia; 14.3 µM with MOLT-4 leukemia; 2.54 µM in the assay on HL-60(TB) leukemia. Besides, the TGI in the assay on U251 CNS is greater than 30.2 µM; with OVCAR-8 ovarian it was greater than 38.8 µM; in the assay on SK-MEL-2 melanoma, 25.9 µM.

As to `CP(C)(=S)P(C)(C)=S`, the TGI in the assay with K-562 leukemia, in the assay with OVCAR-4 ovarian, with SK-OV-3 ovarian, with SR leukemia, in the assay on MOLT-4 leukemia and in the assay with HL-60(TB) leukemia was greater than 100 µM each time. The TGI in the assay on U251 CNS, with OVCAR-8 ovarian and in the assay with SK-MEL-2 melanoma was greater than 100 µM throughout.

In the case of `O=C1C[C@H]2[C@H](c3ccc(Br)cc3)[C@H]3C(=O)c4ccccc4NC(=O)[C@@H]3[C@@]2(O)c2ccccc2N1`, the TGI in the assay on K-562 leukemia is 48.9 µM; in the assay on OVCAR-4 ovarian it was greater than 100 µM; in the assay with SK-OV-3 ovarian, 78.8 µM; with KM12 colon, 43.8 µM; with SR leukemia, 90.8 µM; in the assay on MOLT-4 leukemia, 25 µM. Also, the figures for the TGI with HL-60(TB) leukemia, in the assay with U251 CNS and with OVCAR-8 ovarian were 15.3 µM, greater than 100 µM and greater than 100 µM, respectively.

Take `S=C1SC(c2ccc(Cl)cc2)(c2ccc(Cl)cc2)c2ccccc21`: the TGI was greater than 100 µM with K-562 leukemia; greater than 100 µM in the assay on OVCAR-4 ovarian; greater than 100 µM with SK-OV-3 ovarian; greater than 100 µM with KM12 colon; 89.9 µM in the assay on SR leukemia; greater than 100 µM with MOLT-4 leukemia. The TGI in the assay on U251 CNS and in the assay with OVCAR-8 ovarian was greater than 100 µM in each case.

In the case of `CCCCCCCC/C=C/CCCCCCCC1CC(O)C(=O)O1` (stereo not given), the TGI in the assay with K-562 leukemia is greater than 100 µM; with OVCAR-4 ovarian, greater than 100 µM; with SK-OV-3 ovarian, greater than 100 µM; in the assay with SR leukemia, greater than 100 µM; in the assay with MOLT-4 leukemia, greater than 100 µM; in the assay on HL-60(TB) leukemia, 88.3 µM. In addition, the TGI in the assay with U251 CNS and in the assay with OVCAR-8 ovarian was greater than 100 µM each time.

Take `NC(CCCCNC(=O)C(Cc1ccccc1)NC(=O)OCc1ccccc1)C(=O)NC(CCCCNC(=O)C(Cc1ccccc1)NC(=O)OCc1ccccc1)C(=O)NC(CCCCNC(=O)C(Cc1ccccc1)NC(=O)OCc1ccccc1)C(=O)NC(CCCCNC(=O)C(Cc1ccccc1)NC(=O)OCc1ccccc1)C(=O)NC(CCCCNC(=O)C(Cc1ccccc1)NC(=O)OCc1ccccc1)C(=O)NC(CCCCNC(=O)C(Cc1ccccc1)NC(=O)OCc1ccccc1)C(=O)O` (stereo not given): the TGI in the assay on K-562 leukemia, in the assay with OVCAR-4 ovarian, in the assay with SR leukemia, in the assay with MOLT-4 leukemia, in the assay on HL-60(TB) leukemia and in the assay on U251 CNS was greater than 100 µM throughout. Further, the TGI in the assay on OVCAR-8 ovarian and in the assay with SK-MEL-2 melanoma was greater than 100 µM throughout.

On to `CN(C(=O)c1cccs1)C(=S)N1CCN(c2ccccc2)CC1`, for which the TGI in the assay with K-562 leukemia, in the assay with OVCAR-4 ovarian, in the assay on KM12 colon, in the assay with SR leukemia, with MOLT-4 leukemia and in the assay on HL-60(TB) leukemia was greater than 100 µM each time. Moreover, the TGI in the assay with U251 CNS, in the assay with OVCAR-8 ovarian and in the assay on SK-MEL-2 melanoma was greater than 100 µM in each case.

In the case of `CC(=O)Nc1ccc(-c2nc3ccccc3s2)cc1O`, the TGI in the assay on K-562 leukemia is greater than 100 µM; in the assay with OVCAR-4 ovarian, greater than 100 µM; with KM12 colon, 73 µM; in the assay with SR leukemia it was greater than 100 µM; with MOLT-4 leukemia, 85.6 µM; in the assay on U251 CNS, greater than 100 µM. The TGI in the assay with OVCAR-8 ovarian and in the assay on SK-MEL-2 melanoma was greater than 100 µM in each case.

With `S=C(Nc1ccccc1)N1N=C2c3ccccc3CC[C@H]2[C@@H]1c1ccccc1`, the TGI in the assay on OVCAR-4 ovarian was greater than 100 µM; in the assay on SK-OV-3 ovarian it was greater than 100 µM; in the assay with KM12 colon, greater than 100 µM; with SR leukemia it was 1.96 µM; in the assay on MOLT-4 leukemia, greater than 100 µM; in the assay on HL-60(TB) leukemia, 4.83 µM. Besides, the TGI in the assay on U251 CNS, with OVCAR-8 ovarian and in the assay on SK-MEL-2 melanoma was greater than 100 µM in each case.
